Results on 15 molecules are retold here after patent US11028087B2, “2,6-disubstituted-9-cyclopentyl-9H-purines, use thereof as medicaments, and pharmaceutical compositions” (UNIVERZITA PALACKEHO V OLOMOUCI, priority 2017, dated 2021).

Like-named read-outs stand apart in the source and are kept apart here.

Assay [1] relates to THP-1 (acute myeloid leukemia, wt FLT3). Kind of assay: Calcein AM cytotoxicity assay. Type of assay: cell-based. The following applies: Homo sapiens, 72 h; THP-1; Calcein AM, three days; read-out: EC50 values (μM) THP-1. Summed up: (§1)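 After overnight attachment in 96-well format, test compounds are applied at a range of concentrations in triplicate and left for three days. Calcein AM is then added to 1 μg/ml final for 1 h, and fluorescence of the calcein released by intracellular esterases measures viable cell number.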

The subject of assay [2] is MOLM-13 (acute myeloid leukemia, FLT3-ITD positive). Briefly: Calcein AM cytotoxicity assay. Type of assay: cell-based. Particulars: Homo sapiens, 72 h; MOLM-13; Calcein AM, three days; read-out: EC50 values (μM) MOLM-13. Summed up:
as §1

Assay [3] deals with MV4-11 (acute myeloid leukemia, FLT3-ITD positive). Kind of assay: Calcein AM cytotoxicity assay. Particulars: Homo sapiens, 72 h; MV4-11; Calcein AM, three days after drug addition; read-out: EC50 values (μM) MV4-11. Type of assay: cell-based. Summed up:
as §1

The test system of another assay is K562. Kind of assay: Calcein AM cytotoxicity assay. It is filed as cell-based. Particulars: Homo sapiens, 72 h; K562; Calcein AM, three days; read-out: EC50 values (μM) K562. Summed up:
as §1

In the next assay the test system is MCF-7. Kind of assay: Calcein AM cytotoxicity assay. Type of assay: cell-based. Particulars: Homo sapiens, MCF7, 72 h; MCF-7; Calcein AM, three days; read-out: EC50 values (μM) MCF-7. Put shortly: as §1
The test system of assay [4] is U937 (monocytic leukemia, wt FLT3). Briefly: Calcein AM cytotoxicity assay. It is filed as cell-based. Particulars: Homo sapiens, U-937, 72 h; U937; Calcein AM, three days; read-out: EC50 values (μM) U937. Summed up:
as §1

In assay [5] the test system is EOL-1 (eosinophilic leukaemia, carrying the fusion FIP1L1-PDGFRA). Kind of assay: Calcein AM cytotoxicity assay. It is filed as cell-based. Particulars: Homo sapiens, EOL1, 72 h; EOL-1; Calcein AM, three days; read-out: EC50 values (μM) EOL-1. Put shortly: as §1
Another assay has as its target T1, CDK2/Cyclin E (Homo sapiens, UniProt P24941).
T1 construct: made in house; host or cells: Sf9 insect cells, baculoviral infection
Briefly: Kinase inhibition assay with [γ-33P]ATP. It is filed as biochemical. The following applies: histone H1, 15 μM ATP; read-out: IC50 values (μM) CDK2. Summed up: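 Human CDK2/Cyclin E, expressed in baculovirus-infected Sf9 insect cells and purified on a NiNTA column, was assayed with 1 mg/mL histone H1 substrate, 15 μM ATP plus 0.05 μCi [γ-33P]ATP and test compound in 10 μL of buffer (60 mM HEPES-NaOH pH 7.5, 3 mM MgCl2, 3 mM MnCl2, 3 μM Na-orthovanadate, 1.2 mM DTT, PEG20,000). Reactions were quenched with 5 μL 3% H3PO4, spotted onto P-81 phosphocellulose, washed and dried.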

The target in another assay is T2, FLT3-ITD (Homo sapiens, UniProt P36888).
T2 sequence (P36888 1-993): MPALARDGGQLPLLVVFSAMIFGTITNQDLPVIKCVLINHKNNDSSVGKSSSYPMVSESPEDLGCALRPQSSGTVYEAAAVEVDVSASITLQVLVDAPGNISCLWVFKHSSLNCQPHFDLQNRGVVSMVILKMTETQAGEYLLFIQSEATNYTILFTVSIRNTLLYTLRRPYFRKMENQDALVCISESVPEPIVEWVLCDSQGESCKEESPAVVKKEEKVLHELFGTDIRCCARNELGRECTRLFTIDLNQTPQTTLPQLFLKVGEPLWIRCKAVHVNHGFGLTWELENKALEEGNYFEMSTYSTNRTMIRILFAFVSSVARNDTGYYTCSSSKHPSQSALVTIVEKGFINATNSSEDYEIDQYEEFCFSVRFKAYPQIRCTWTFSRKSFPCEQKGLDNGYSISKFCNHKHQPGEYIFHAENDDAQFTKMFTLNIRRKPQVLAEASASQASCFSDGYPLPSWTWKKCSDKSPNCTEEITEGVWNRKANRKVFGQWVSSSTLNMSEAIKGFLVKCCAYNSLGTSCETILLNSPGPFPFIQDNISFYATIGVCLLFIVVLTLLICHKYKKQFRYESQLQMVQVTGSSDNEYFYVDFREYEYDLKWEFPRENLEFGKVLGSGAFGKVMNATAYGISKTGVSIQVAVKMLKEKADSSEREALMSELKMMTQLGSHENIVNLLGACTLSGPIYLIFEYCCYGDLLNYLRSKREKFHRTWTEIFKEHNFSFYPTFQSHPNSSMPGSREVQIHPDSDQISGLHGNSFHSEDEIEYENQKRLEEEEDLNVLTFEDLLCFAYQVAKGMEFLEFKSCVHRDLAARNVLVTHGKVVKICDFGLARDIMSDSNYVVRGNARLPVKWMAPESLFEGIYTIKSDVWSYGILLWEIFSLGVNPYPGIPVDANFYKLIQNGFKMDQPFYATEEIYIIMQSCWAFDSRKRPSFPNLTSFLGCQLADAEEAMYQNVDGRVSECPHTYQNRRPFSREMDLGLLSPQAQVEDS
Kind of assay: Kinase inhibition assay with [γ-33P]ATP. It is filed as biochemical. Summed up: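 Radiometric [γ-33P]ATP assay in HEPES pH 7.5 with Mg2+/Mn2+: CDK1/Cyclin B (Sf9-expressed) and purchased CDK5/p35 with 1 mg/mL histone H1 at 15 and 0.15 μM ATP respectively; FLT3 WT and FLT3-ITD with AGLT substrate at 1 μM ATP. Reactions stopped with H3PO4, spotted onto phosphocellulose and washed.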

The mark [6] stands for this setting: AGLT substrate, 1 μM ATP, read-out: IC50 values (μM) FLT3 ITD.

Broadly, the EC50 is the concentration giving half of the maximal effect. As a reminder, the IC50 is the concentration needed to halve the response being measured. As for `NCCNc1nc(Nc2ccc(CN3CCNCC3)cc2)c2ncn(C3CCCC3)c2n1` [Compound 14], the EC50 in assay [1] is 1.86 µM; in [2], 0.025 µM; in [3], 0.083 µM; with K562 it was 1.56 µM; in the assay with MCF-7 it was 1.52 µM; in assay [4] it was 1.45 µM. In assay [5], the EC50 is 0.054 µM. Besides, the IC50 on CDK2/Cyclin E and at FLT3-ITD (setting [6]) was 0.004 µM in each case.
With `CN(C)CCNc1nc(Nc2ccc(CN3CCOCC3)nc2)c2ncn(C3CCCC3)c2n1` [Compound 172], the EC50 in assay [1] was 1.52 µM; in assay [2], 0.017 µM; in assay [3], 0.003 µM; with K562 it was 1.16 µM; in the assay with MCF-7, 0.43 µM; in assay [4], 1.48 µM. For the same molecule, in assay [5], the 50% effective concentration (EC50) is 0.014 µM. The IC50 on CDK2/Cyclin E was 0.016 µM; at FLT3-ITD (setting [6]) it was 0.003 µM.
As to `CN1CCN(C(=O)c2ccc(Nc3nc(NC4CCC(N)CC4)nc4c3ncn4C3CCCC3)cc2)CC1` (stereo not shown) [Compound 3], the EC50 is 3.02 µM in assay [1]; 0.02 µM in assay [2]; 0.018 µM in assay [3]; 1.23 µM with K562; 0.273 µM in the assay with MCF-7; 3.66 µM in assay [4]. The EC50 in [5] was 0.015 µM. The half-maximal inhibitory concentration (IC50) at CDK2/Cyclin E amounted to 0.004 µM; at FLT3-ITD (setting [6]) it was 0.007 µM.
Consider `NCCCCNc1nc(Nc2ccc(N3CC4(COC4)C3)nc2)c2ncn(C3CCCC3)c2n1` [Compound 28], for which the 50% effective concentration (EC50) was 0.514 µM in assay [1]; 0.004 µM in [2]; 0.001 µM in [3]; 1.05 µM in the assay on K562; 0.925 µM in the assay with MCF-7; 0.605 µM in assay [4]. Besides, the EC50 in [5] was 0.013 µM. Also, the half-inhibitory concentration (IC50) on CDK2/Cyclin E is 0.028 µM; on FLT3-ITD (setting [6]), 0.003 µM.
`CN1CCN(C(=O)c2ccc(Nc3nc(NCCCCN)nc4c3ncn4C3CCCC3)cc2)CC1` [Compound 27]: the concentration for a half-maximal effect (EC50) in [1] is 0.624 µM; in assay [2], 0.019 µM; in [3], 0.024 µM; in the assay with K562 it was 0.57 µM; in the assay on MCF-7 it was 0.265 µM; in assay [4] it was 0.794 µM. Further, the half-maximal effective concentration (EC50) in assay [5] is 0.053 µM. For the same molecule, the IC50 on CDK2/Cyclin E and at FLT3-ITD (setting [6]) was 0.002 µM throughout.
Consider `NCCCCNc1nc(Nc2ccc(N3CCOCC3)cc2)c2ncn(C3CCCC3)c2n1` [Compound 265], for which the EC50 in [1] is above 4 µM; in assay [2] it was 0.016 µM; in assay [3] it was 0.017 µM; in the assay with K562 it was 3.74 µM; in the assay on MCF-7, 3.25 µM; in assay [4], above 4 µM. In addition, in [5], the EC50 is 0.039 µM. Also, the IC50 stood at 0.642 µM on CDK2/Cyclin E and 0.004 µM on FLT3-ITD (setting [6]).
For `NC1CCC(Nc2nc(Nc3ccc(N4CC5(COC5)C4)cc3)c3ncn(C4CCCC4)c3n2)CC1` (stereo not shown) [Compound 272], the half-maximal effective concentration (EC50) in assay [1] was 0.693 µM; in [2], 0.004 µM; in assay [3], 0.003 µM; in the assay with K562, 1.18 µM; in the assay with MCF-7, 1.05 µM; in assay [4] it was 0.638 µM. Further, the EC50 in [5] was 0.022 µM. In addition, the IC50 at CDK2/Cyclin E was found to be 0.025 µM.
As to `CCN1CCN(c2ccc(Nc3nc(NCCCCN)nc4c3ncn4C3CCCC3)cc2)CC1` [Compound 266], the concentration for a half-maximal effect (EC50) in assay [1] is 2.99 µM; in assay [2] it was 0.014 µM; in [3], 0.018 µM; in the assay on K562 it was 1.43 µM; in the assay with MCF-7, 2.15 µM; in assay [4], 3.77 µM. Moreover, in assay [5], the EC50 is 0.074 µM. Moreover, the IC50 on CDK2/Cyclin E stood at 0.586 µM; on FLT3-ITD (setting [6]) it was 0.002 µM.
Take `NC1CCC(Nc2nc(Nc3ccc(N4CCCC4)cc3)c3ncn(C4CCCC4)c3n2)CC1` (stereo not shown) [Compound 263]: the EC50 is 3.11 µM in assay [1]; 0.024 µM in assay [2]; 0.018 µM in [3]; 1.27 µM with K562; 1.33 µM in the assay with MCF-7; 3.17 µM in assay [4]. The half-maximal effective concentration (EC50) in assay [5] is 0.03 µM. The IC50 at CDK2/Cyclin E was 0.031 µM; on FLT3-ITD (setting [6]) it was 0.003 µM.
For `NC1CCC(Nc2nc(Nc3ccc(CN4CCNCC4)cc3)c3ncn(C4CCCC4)c3n2)CC1` (stereo not shown) [Compound 2], the EC50 was 2.28 µM in assay [1]; 0.015 µM in assay [2]; 0.01 µM in assay [3]; 1.57 µM with K562; 0.52 µM with MCF-7; 1.8 µM in [4]. For the same molecule, the EC50 in assay [5] is 0.023 µM. Also, the 50% inhibitory concentration (IC50) was 0.008 µM at CDK2/Cyclin E and 0.004 µM on FLT3-ITD (setting [6]).
On to `CN(C)CCCNc1nc(Nc2ccc(C(=O)N3CCOCC3)nc2)c2ncn(C3CCCC3)c2n1` [Compound 179], for which the half-maximal effective concentration (EC50) is above 4 µM in assay [1]; 0.078 µM in assay [2]; 0.013 µM in assay [3]; 2.21 µM with MCF-7; 0.225 µM in assay [5]. Further, the IC50 at CDK2/Cyclin E turned out to be 0.04 µM; at FLT3-ITD (setting [6]), 0.012 µM.
For the molecule `NC1CCC(Nc2nc(Nc3ccc(CN4CCOCC4)cc3)c3ncn(C4CCCC4)c3n2)CC1` (stereo not shown) [Compound 264], the IC50 was determined as 0.007 µM at CDK2/Cyclin E; 0.001 µM at FLT3-ITD (setting [6]); 0.001 µM at FLT3-ITD (comparative example, read-out: Influence of compounds on protein kinase inhibition, IC50 values (μM) FLT3 ITD).
With `NC1CCC(Nc2nc(Nc3ccc(N4CCOCC4)cc3)c3ncn(C4CCCC4)c3n2)CC1` (stereo not shown) [Compound 1], the concentration giving a half-maximal response (EC50) is 1.01 µM in [1]; 0.004 µM in assay [2]; 0.001 µM in assay [3]; 1.19 µM in the assay on K562; 0.32 µM in the assay on MCF-7; 2.13 µM in [4]. In addition, the half-maximal effective concentration (EC50) in assay [5] was 0.008 µM. For the same molecule, the IC50 at CDK2/Cyclin E amounted to 0.017 µM; at FLT3-ITD (setting [6]), 0.002 µM.
As to `NCCCCNc1nc(Nc2ccc(CN3CCOCC3)cc2)c2ncn(C3CCCC3)c2n1` [Compound 270], the EC50 is 1.24 µM in [1]; 0.014 µM in assay [2]; 0.029 µM in assay [3]; 1.81 µM in the assay on K562; 2.1 µM with MCF-7; above 4 µM in [4]. Moreover, the IC50 on CDK2/Cyclin E was 0.625 µM; on FLT3-ITD (setting [6]), 0.002 µM.
Regarding `CN1CC2(C1)CN(c1ccc(Nc3nc(NC4CCC(O)CC4)nc4c3ncn4C3CCCC3)cc1)C2` (stereo not shown) [Compound 7], the IC50 on CDK2/Cyclin E was 0.006 µM; at FLT3-ITD (setting [6]), 0.005 µM.
